Literature values as cited in US5639785A, “Methods for the treatment of baldness and gray hair using isoflavonoid derivatives” (priority 1995, dated 1997).
Like-named read-outs stand apart in the source and are kept apart here.

Experiments:
[1] = tested on: LNCaP human prostate cancer cell line
[2] = tested on: Du-145 human prostate cancer cell line
[3] = tested on: alcohol dehydrogenase (ADH) class I isozymes
[4] = tested on: patients with hair loss; details: after four months of treatment
[5] = molecular target: r2 r2 ADH isozyme (alcohol dehydrogenase class I) (Homo sapiens, UniProt P00326, I350V/R272Q); details: competitive with respect to ethanol, uncompetitive with respect to NAD
[6] = tested on: HL60 human leukemia cells
[7] = molecular target: r1 r1 ADH isozyme (alcohol dehydrogenase class I) (Homo sapiens, UniProt P00326); details: competitive with respect to ethanol, uncompetitive with respect to NAD
[8] = tested on: Syrian Golden hamsters
[9] = molecular target: T1, aldehyde dehydrogenase (ALDH) II and II of human mitochondria (Homo sapiens, UniProt P05091)
T1 sequence (P05091 18-517): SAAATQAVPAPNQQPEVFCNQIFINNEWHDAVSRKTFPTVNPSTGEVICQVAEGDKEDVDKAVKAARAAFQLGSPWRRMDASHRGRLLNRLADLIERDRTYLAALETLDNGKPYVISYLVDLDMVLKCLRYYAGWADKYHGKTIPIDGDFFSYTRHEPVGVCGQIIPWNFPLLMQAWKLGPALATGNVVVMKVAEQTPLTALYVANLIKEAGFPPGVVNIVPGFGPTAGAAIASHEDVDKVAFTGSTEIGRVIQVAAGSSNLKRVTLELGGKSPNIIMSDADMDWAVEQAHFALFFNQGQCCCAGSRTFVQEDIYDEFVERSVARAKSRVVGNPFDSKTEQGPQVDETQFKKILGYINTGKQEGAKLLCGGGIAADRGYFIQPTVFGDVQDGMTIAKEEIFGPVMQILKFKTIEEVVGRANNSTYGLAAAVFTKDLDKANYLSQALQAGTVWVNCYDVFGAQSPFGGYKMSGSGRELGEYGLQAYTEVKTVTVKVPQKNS

r1 r1 ADH isozyme (alcohol dehydrogenase class I), sequence (P00326 2-375 limits assumed): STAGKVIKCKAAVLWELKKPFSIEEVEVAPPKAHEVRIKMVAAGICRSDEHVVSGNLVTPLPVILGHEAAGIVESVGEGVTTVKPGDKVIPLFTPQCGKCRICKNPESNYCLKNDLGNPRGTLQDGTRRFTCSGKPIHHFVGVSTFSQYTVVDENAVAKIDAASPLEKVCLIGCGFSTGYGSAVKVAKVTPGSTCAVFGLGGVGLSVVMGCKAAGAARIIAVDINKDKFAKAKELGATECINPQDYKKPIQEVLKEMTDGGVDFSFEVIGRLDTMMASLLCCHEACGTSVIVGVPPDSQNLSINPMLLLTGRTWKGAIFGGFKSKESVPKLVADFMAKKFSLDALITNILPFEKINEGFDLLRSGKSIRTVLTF
r2 r2 ADH isozyme (alcohol dehydrogenase class I), sequence (P00326 2-375 R272Q/I350V limits assumed): as the sequence (P00326 2-375 limits assumed) above, with R271Q, I349V counted along it

Compound	inhibition of serum and epidermal growth factor-stimulated growth [1]	inhibition of serum and epidermal growth factor-stimulated growth [2]	inhibition of ADH [3]	free choice ethanol intake ([8]; Syrian Golden hamsters)	also measured
O=c1c(-c2ccc(O)cc2)coc2cc(O)cc(O)c12 [genistein]	inhibited	inhibited	reversible inhibitors	–	–
Nc1cc(N2CCCCC2)nc(N)[n+]1[O-] [Minoxidil]	–	–	–	–	patients who achieve minimal regrowth of hair [4]: approximately 25%
COc1ccc(-c2coc3cc(O)cc(O)c3c2=O)cc1 [biochanin A]	inhibited	inhibited	–	–	–
O=c1c(-c2ccc(O)cc2)coc2cc(O)ccc12 [daidzein, 7-hydroxy-3-(4-hydroxyphenyl)-4-H-1-benzopyranyl-4-one]	not	not	reversible inhibitors	suppressed	Ki [5]: ~1000 nM; concentration that inhibited the growth of HL60 cells [6]: greater than 10 μg/ml; Ki [7]: ~1000 nM; effect on body weight, water or food intake ([8]; hamster, in vivo): did not significantly affect
O=c1c(-c2ccc(O)cc2)coc2cc(O[C@@H]3O[C@H](CO)[C@@H](O)[C@H](O)[C@H]3O)ccc12 [daidzin]	–	–	did not inhibit	suppressed	inhibition of ALDH [9]: potent inhibitor; effect on body weight, water or food intake ([8]; Syrian Golden hamsters): did not significantly affect
